Assay [1] has as its target T1, StCA2 (Salmonella enterica, UniProt O30898).
T1 construct: gene mig-5; recombinant, obtained in-house; beta-class CA
T1 sequence (O30898 41-246): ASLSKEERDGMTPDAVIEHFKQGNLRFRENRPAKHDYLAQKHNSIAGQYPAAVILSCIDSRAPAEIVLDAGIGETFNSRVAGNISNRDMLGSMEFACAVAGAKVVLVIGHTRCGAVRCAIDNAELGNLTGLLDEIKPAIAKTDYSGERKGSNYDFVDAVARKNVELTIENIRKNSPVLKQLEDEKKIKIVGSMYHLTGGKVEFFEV
Kind of assay: stopped-flow CO2 hydration. It is filed as biochemical. The conditions noted are these: 20 mM TRIS pH 8.4, 20 mM Na2SO4, CO2 1.7-17 mM; 6 h preincubation at room temperature. From the text: stopped-flow CO2 hydration on StCA2

The target of assay [2] is T2, hCA XIII (Homo sapiens, UniProt Q8N1Q1).
T2 construct: gene CA13; recombinant, obtained in-house; cytosolic
Kind of assay: stopped-flow CO2 hydration. Type of assay: biochemical. From the text: stopped-flow CO2 hydration on hCA XIII

The target in assay [3] is T3, hCA II (Homo sapiens, UniProt P00918).
T3 construct: gene CA2; recombinant, obtained in-house; cytosolic
The assay is described as follows: biochemical. Set-up: stopped-flow CO2 hydration assay, phenol red 557 nm, Hepes pH 7.5, recombinant alpha-CA, 6 h preincubation. The protocol:
(§1) An applied photophysics stopped-flow instrument has been used for assaying the CA-catalysed CO2 hydration activity. Phenol red (at a concentration of 0.2 mM) was used as indicator, working at the absorbance maximum of 557 nm, with 20 mM Hepes (pH 7.5) as buffer for α-CAs or 20 mM TRIS (pH 8.4) as buffer for β-CAs, and 20 mM Na2SO4 (for maintaining constant the ionic strength), following the initial rates of the CA-catalysed CO2 hydration reaction for a period of 10 – 100 s. The CO2 concentrations ranged from 1.7 to 17 mM for the determination of the kinetic parameters and inhibition constants. For each inhibitor, at least six traces of the initial 5 – 10% of the reaction have been used for determining the initial velocity. The uncatalysed rates were determined in the same manner and subtracted from the total observed rates. Stock solutions of inhibitor (0.1 mM) were prepared in distilled – deionised water, and dilutions up to 0.01 nM were done thereafter with the assay buffer. Inhibitor and enzyme solutions were preincubated together for 6 h at room temperature prior to assay in order to allow for the formation of the E – I complex. The inhibition constants were obtained by nonlinear least-squares methods using PRISM 3 and the Cheng–Prusoff equation, as reported earlier[12]^,[13]^,[20]^,[21], and represent the mean from at least three different determinations. All CA isoforms were recombinant ones obtained in-house as reported earlier[22]^,[23] and their concentrations in the assay system ranged between 7.6–12.5 nM.

The target in assay [4] is T4, hCA I (Homo sapiens, UniProt P00915).
T4 construct: gene CA1; recombinant, obtained in-house; cytosolic
Kind of assay: biochemical. Set-up: stopped-flow CO2 hydration assay, phenol red 557 nm, Hepes pH 7.5, recombinant alpha-CA, 6 h preincubation. The protocol:
as §1

For assay [5], the target named is T5, hCA VII (Homo sapiens, UniProt P43166).
T5 construct: gene CA7; recombinant, obtained in-house; cytosolic
Kind of assay: biochemical. Details: stopped-flow CO2 hydration assay, phenol red 557 nm, Hepes pH 7.5, recombinant alpha-CA, 6 h preincubation. The protocol:
as §1

The target in assay [6] is T2, hCA XIII. Kind of assay: biochemical. Details: stopped-flow CO2 hydration assay, phenol red 557 nm, Hepes pH 7.5, recombinant alpha-CA, 6 h preincubation. The protocol:
as §1

Another assay deals with T6, StCA1.
T6 construct: recombinant, obtained in-house; beta-class CA
The assay is described as follows: stopped-flow CO2 hydration. It is filed as biochemical, Salmonella enterica subsp. enterica serovar Typhimurium. The conditions noted are these: 20 mM TRIS pH 8.4, 20 mM Na2SO4, CO2 1.7-17 mM; 6 h preincubation at room temperature. The text has this:
stopped-flow CO2 hydration on StCA1

Assay [7] has as its target T1, StCA2. Set-up: stopped-flow CO2 hydration assay, phenol red 557 nm, TRIS pH 8.4, recombinant beta-CA, 6 h preincubation. The note with it: inhibitor. The protocol: as §1, with “For each inhibitor, at least six traces of the initial 5 – 10% of the reaction have been used for determining the initial velocity.” left out
Assay [8] has as its target T5, hCA VII. The assay is described as follows: stopped-flow CO2 hydration. It is filed as biochemical. From the text: stopped-flow CO2 hydration on hCA VII
Assay [9] deals with T4, hCA I. The assay is described as follows: stopped-flow CO2 hydration. Type of assay: biochemical. The text has this:
stopped-flow CO2 hydration on hCA I

The target of assay [10] is T3, hCA II. Kind of assay: stopped-flow CO2 hydration. It is filed as biochemical. From the text: stopped-flow CO2 hydration on hCA II

Read-outs that look alike come from different tables or passages of the source.

T2 sequence (Q8N1Q1 whole entry): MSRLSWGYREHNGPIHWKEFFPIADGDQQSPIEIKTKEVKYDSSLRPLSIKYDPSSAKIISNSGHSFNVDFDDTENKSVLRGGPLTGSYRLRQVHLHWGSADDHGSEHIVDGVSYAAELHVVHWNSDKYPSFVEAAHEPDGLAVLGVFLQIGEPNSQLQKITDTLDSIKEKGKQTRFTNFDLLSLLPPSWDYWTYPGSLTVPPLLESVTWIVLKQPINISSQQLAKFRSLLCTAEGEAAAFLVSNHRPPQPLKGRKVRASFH
T5 sequence (P43166 whole entry): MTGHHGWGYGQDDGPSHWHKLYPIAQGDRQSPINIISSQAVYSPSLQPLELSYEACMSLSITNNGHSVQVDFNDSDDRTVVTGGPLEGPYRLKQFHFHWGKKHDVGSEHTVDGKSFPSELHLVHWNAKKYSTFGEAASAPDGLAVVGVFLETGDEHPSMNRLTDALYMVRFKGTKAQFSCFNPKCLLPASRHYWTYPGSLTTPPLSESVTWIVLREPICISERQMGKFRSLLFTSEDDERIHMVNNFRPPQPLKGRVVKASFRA
T4 sequence (P00915 2-261): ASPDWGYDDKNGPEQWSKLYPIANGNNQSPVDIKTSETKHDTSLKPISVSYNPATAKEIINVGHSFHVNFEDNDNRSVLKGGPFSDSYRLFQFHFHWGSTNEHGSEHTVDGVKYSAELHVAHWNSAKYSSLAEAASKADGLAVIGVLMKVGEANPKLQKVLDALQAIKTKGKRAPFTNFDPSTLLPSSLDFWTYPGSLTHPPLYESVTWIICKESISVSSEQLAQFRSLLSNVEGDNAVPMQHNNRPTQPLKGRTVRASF

Regarding `CSC(N)=Nc1ccc(S(N)(=O)=O)cc1` [8a, Methyl (4-sulphamoylphenyl)carbamimidothioate], the inhibitory constant (Ki) on StCA2 [1] stood at 270 nM; at hCA XIII [2] it was 97.5 nM; at hCA II [3], 85.8 nM; on hCA I [4] it was 90.4 nM; on hCA VII [5], 18.9 nM.
Consider `CCCCSC(N)=Nc1ccc(S(N)(=O)=O)cc1` [8b, Butyl (4-sulphamoylphenyl)carbamimidothioate], for which the Ki on StCA2 [1] was 348 nM; on hCA II [3], 73.6 nM; at hCA I [4] it was 76.4 nM; on hCA VII [5], 13.8 nM.
In the case of `CCCCCCCSC(N)=Nc1ccc(S(N)(=O)=O)cc1` [8d, Heptyl (4-sulphamoylphenyl)carbamimidothioate], the Ki on hCA II [3] amounted to 9.3 nM; at hCA XIII [6], 926 nM; on hCA VII [5], 2.7 nM; at StCA1, 71.3 nM; at StCA2 [7], 955 nM.
As for `C=CCSC(N)=Nc1ccc(S(N)(=O)=O)cc1` [8e, Allyl (4-sulphamoylphenyl)carbamimidothioate], the Ki at hCA VII [8] stood at 1.8 nM; on hCA XIII [6], 814 nM; on StCA2 [7], 4990 nM; at hCA I [9], 38.5 nM; at hCA II [10] it was 8.2 nM.
As to `C#CCSC(N)=Nc1ccc(S(N)(=O)=O)cc1` [8f, Prop-2-yn-1-yl (4-sulphamoylphenyl)carbamimidothioate], the Ki stood at 92.5 nM at hCA I [4]; 352 nM at hCA XIII [6]; 5.5 nM on hCA VII [5]; 7120 nM on StCA2 [7]; 6.9 nM on hCA II [10].
For the compound `NC(=Nc1ccc(S(N)(=O)=O)cc1)SCc1ccccc1` [8g, Benzyl (4-sulphamoylphenyl)carbamimidothioate], the inhibitory constant (Ki) at StCA2 [1] is 902 nM; on hCA I [4], 68.1 nM; on hCA XIII [6], 491 nM; on hCA VII [5] it was 2.4 nM; at StCA1, 52.2 nM.
For the compound `NC(=Nc1ccc(S(N)(=O)=O)cc1)SCc1ccc(Cl)cc1` [8h, 4-Chlorobenzyl (4-sulphamoylphenyl)carbamimidothioate], the Ki is 34.4 nM on hCA II [3]; 73.2 nM on hCA I [4]; 892 nM at hCA XIII [6]; 2 nM at hCA VII [5]; 6680 nM on StCA2 [7].
With `NC(=Nc1ccc(S(N)(=O)=O)cc1)SCc1ccc(Br)cc1` [8i, 4-Bromobenzyl (4-sulphamoylphenyl)carbamimidothioate], the Ki at hCA II [3] is 29.9 nM; on hCA XIII [6] it was 907 nM; on hCA VII [5] it was 2.1 nM; at StCA2 [7] it was 9700 nM; at hCA I [9], 60 nM.
For `N#Cc1ccc(CSC(N)=Nc2ccc(S(N)(=O)=O)cc2)cc1` [8j, 4-Cyanobenzyl (4-sulphamoylphenyl)carbamimidothioate], the Ki on hCA VII [8] was 1.5 nM; on hCA II [3], 21.5 nM; at hCA I [4], 82.8 nM; on hCA XIII [6] it was 302 nM; at StCA1, 55.7 nM; on StCA2 [7] it was 5190 nM.
On to `NC(=Nc1ccc(S(N)(=O)=O)cc1)SCc1ccc([N+](=O)[O-])cc1` [8k], for which the Ki at hCA II [3] is 9 nM; on hCA I [4], 77.2 nM; at hCA XIII [6], 856 nM; on hCA VII [5], 2.6 nM; at StCA2 [7], 6850 nM.
Take `NC(=Nc1ccc(S(N)(=O)=O)cc1)SCc1ccc(C(F)(F)F)cc1` [8l, 4-(Trifluoromethyl)benzyl (4-sulphamoylphenyl)carbamimidothioate]: the Ki on hCA XIII [2] came out at 80.5 nM; at hCA II [3] it was 8.9 nM; at hCA I [4] it was 73.5 nM; at hCA VII [5], 2.3 nM; at StCA2 [7] it was 5890 nM.
In the case of `NC(=Nc1ccc(S(N)(=O)=O)cc1)SCc1cc(F)cc(F)c1` [8m, 3,5-Difluorobenzyl (4-sulphamoylphenyl)carbamimidothioate], the Ki on hCA VII [8] is 1.2 nM; at hCA XIII [2] it was 75.6 nM; at hCA I [4] it was 82.2 nM; on StCA2 [7] it was 6310 nM; at hCA II [10] it was 1.7 nM.

By Ki is commonly meant the equilibrium dissociation constant of an inhibitor or competing ligand from its target.

Source of the values: PMC9848269, “Investigation of novel alkyl/benzyl (4-sulphamoylphenyl)carbamimidothioates as carbonic anhydrase inhibitors” (Journal of Enzyme Inhibition and Medicinal Chemistry, 2023).
